Reference: patent US20080057136A1, “Disinfecting Composition and Methods of Making and Using Same” (priority 2003, published 2008)
Values after ≈ are worked out from the molar mass of the structure shown. Values joined by “and” are separate entries in the source; they are usually repeats but may differ in a detail not shown here. Identical values can stand only once. Each block holds one molecule with its values, some of them ahead of it.

What was measured:
C. albicans ATCC 10231 [1] = test: NCCLS broth microdilution MIC and MFC (Example 11); format: cell-based, Candida albicans; details: for MIC: amphotericin B complete inhibition, terbinafine 50%/90%; for fungicidal activity: MFC within 1 doubling dilution of the MIC
T. rubrum ATCC 28188 [2] = test: NCCLS broth microdilution MIC and MFC (Example 11); format: cell-based, Trichophyton rubrum; details: Example 11; for fungicidal activity: MFC within 1 doubling dilution of the MIC
[3] = test system: Candida albicans (ATCC 10231); test: Time-Kill test (Example 9); format: cell-based; details: Study 506-103
C. albicans ATCC 10231 [4] = test: NCCLS broth microdilution MIC and MFC (Example 10); format: cell-based, Candida albicans; details: for MIC: amphotericin B complete inhibition; for fungicidal activity: MFC within 1 doubling dilution of the MIC
T. rubrum ATCC 28188 [5] = test: NCCLS broth microdilution MIC and MFC (Example 10); format: cell-based, Trichophyton rubrum; details: Example 10; for fungicidal activity: MFC within 1 doubling dilution of the MIC; for MIC: 80% reduction in growth, amphotericin B complete inhibition
T. rubrum = test: MIC and MBC determination by doubling dilutions (Study 509-102); format: cell-based, Trichophyton rubrum
Description: (§1) Table 2 below indicates the stock dilutions for each test agent, and a breakdown of the resulting concentrations for each of the doubling dilutions performed is summarized in Table 3.
(§2) From the stock dilutions, an initial 1:10 dilution was made (representing tube 1), followed by doubling dilutions (tubes 2-12), as detailed in Table 3.

C. albicans = test: as above; format: cell-based; details: Candida albicans, Inoculum Counts: 6.6 × 10^5
Description: as §1, §2

[6] = test system: Trichophyton rubrum (ATCC 28188); test: Time-Kill test (Example 9); format: cell-based; details: Study 506-103
S. aureus (strain 906) = test: Time-kill test, initial studies (death time); format: cell-based, Staphylococcus aureus
Description: (§3) Time-kill tests were used to measure the disinfecting property of test compounds, e.g., microbiocidal or sporicidal compositions, using select bacterial challenge microorganisms such as the vegetative forms of, e.g., E. coli (strain 1257) S. aureus (strain 906), and Bacillus cereus (strain 96).

P. aeruginosa ATCC 15442 = test: NCCLS broth microdilution MIC and MBC (Example 10); format: cell-based, Pseudomonas aeruginosa; details: Example 10
[7] = test system: S. epidermidis ATCC 12228; test: NCCLS broth microdilution MIC and MBC (Example 10); format: cell-based, Staphylococcus epidermidis
E. coli ATCC 11229 = test: NCCLS broth microdilution MIC and MBC (Example 10); format: cell-based, Escherichia coli; details: % as g/100 ml or ml/100 ml
S. aureus ATCC 25923 = test: NCCLS broth microdilution MIC and MBC (Example 10); format: cell-based, Staphylococcus aureus; details: Example 10
S. pyogenes ATCC 19615 = test: NCCLS broth microdilution MIC and MBC (Example 10); format: cell-based, Streptococcus pyogenes; details: Example 10
[8] = test system: Staphylococcus aureus (ATCC 25923); test: Time-Kill test (Example 9); format: cell-based; details: Study 509-101; at 30 seconds
Method: A panel of “challenge microorganisms,” including select bacteria, yeast, and fungi was used to assess the disinfecting properties of test compounds, e.g., AMC (DPT Laboratories). Specifically, the disinfectant property of test compounds were tested against Staphylococcus aureus (ATCC 25923); Staphylococcus epidermidis (ATCC 12228); Bacillus subtilis (ATCC 19659); Escherichia coli (ATCC 11229); and Pseudomonas aeruginosa (ATCC 15442) bacteria, as well as the yeast Candida albicans (ATCC 10231), and the fungus Trichophyton rubrum (ATCC 28188). The test procedure incorporated the recommendations described in the “Manual of Clinical Microbiology,” 5th ed., edited by A. B. Balows et al., ASM, Washington, as directed by the Federal Register, June 1994. […]
A single lot of test material was prepared at various concentrations, along with multiple compounds prepared in various concentrations and combinations. […] The plates were then incubated, and the average colony forming units (CFU) recovered per milliliter were determined for each contact time. […]
Bacteria and C. albicans from stock cultures were transferred into trypticase soya broth (TSB) and incubated for 18-24 hours at 37° C.±2° C. […] The microbe concentration was measured using a spectrophotometric technique well-known in the art. […]

E. coli (strain 1257) = test: Time-kill test, initial studies (death time); format: cell-based, Escherichia coli
Description: as §3

[9] = Candida albicans, ATCC10231, 80% reduction in growth, read-out: MIC
[10] = Candida albicans, ATCC10231, read-out: MFC
[11] = Trichophyton rubrum, ATCC28188, read-out: MFC
[12] = Trichophyton rubrum, Study 509-102, Inoculum Counts: 3.6 × 10^8
[13] = 80% reduction in growth, amphotericin B complete inhibition
[14] = Study 509-102, Inoculum Counts: 3.6 × 10^8
[15] = 80% reduction in growth endpoint

MIC (C. albicans ATCC 10231 [1]; [9]): 0.5 µg/mL (≈ 1.63 µM)
MIC (T. rubrum ATCC 28188 [2]; Trichophyton rubrum, ATCC28188, 80% reduction in growth, amphotericin B complete inhibition, read-out: MIC): 2 µg/mL (≈ 6.53 µM)
MIC (C. albicans ATCC 10231 [4]; [9]): 0.5 µg/mL (≈ 1.63 µM)
MIC (T. rubrum ATCC 28188 [5]; Trichophyton rubrum, ATCC28188, read-out: MIC): 2 µg/mL (≈ 6.53 µM)
SMILES: OC(Cn1cncn1)(Cn1cncn1)c1ccc(F)cc1F [Fluconazole]
MFC (C. albicans ATCC 10231 [1]; [10]): 1 µg/mL (≈ 3.27 µM)
fungicidal activity (C. albicans ATCC 10231 [1]): Fungicidal activity
fungicidal activity (T. rubrum ATCC 28188 [2]): did not demonstrate fungicidal activity
MFC (T. rubrum ATCC 28188 [2]; [11]): 64 µg/mL (≈ 209 µM)
Log10 Reduction ([3]; 30 sec. contact): <1.0 Log10
CFUs recovered per milliliter of C. albicans culture ([3]; 30 sec. contact, initial 3.0 × 10^7 CFU/ml, Fluconazole 2 mg/ml): 3.0 × 10^6 CFU/ml
CFUs recovered per milliliter of C. albicans culture ([3]; 60 sec. contact): 3.0 × 10^6 CFU/ml
Log10 Reduction ([3]; 60 sec. contact): <1.0 Log10
CFUs recovered per milliliter of C. albicans culture ([3]; 5 min. contact): 3.0 × 10^6 CFU/ml
Log10 Reduction ([3]; 5 min. contact): <1.0 Log10
MFC (C. albicans ATCC 10231 [4]; Candida albicans, ATCC10231, 99.9% inhibition of growth, read-out: MFC): 2 µg/mL (≈ 6.53 µM)
fungicidal activity (C. albicans ATCC 10231 [4]): not considered fungicidal
fungicidal activity (T. rubrum ATCC 28188 [5]): did not demonstrate fungicidal activity
MFC (T. rubrum ATCC 28188 [5]; Trichophyton rubrum, ATCC28188, 99.9% inhibition of growth, read-out: MFC): 8 µg/mL (≈ 26.1 µM)

MIC (T. rubrum; [12]): 0.25 µg/mL (≈ 0.601 µM)
MIC (C. albicans): 2 µg/mL (≈ 4.81 µM)
SMILES: Clc1ccc(COC(Cn2ccnc2)c2ccc(Cl)cc2Cl)c(Cl)c1 (stereo not shown) [Miconazole]
MBC (T. rubrum; [12]): 0.25 µg/mL (≈ 0.601 µM)
MBC (C. albicans): 2 µg/mL (≈ 4.81 µM)

MIC (C. albicans ATCC 10231 [1]; 80% reduction in growth): 0.25 µg/mL (≈ 0.271 µM)
MIC (T. rubrum ATCC 28188 [2]; [13]): 0.25 µg/mL (≈ 0.271 µM)
MIC (ppm) (T. rubrum; [14]): >0.25 ppm
MIC Against T. rubrum (T. rubrum; Table 23, row head prints μg/mL): >0.25 µg/mL
MIC (C. albicans ATCC 10231 [4]; 80% reduction in growth): 0.12 µg/mL (≈ 0.13 µM)
MIC (T. rubrum ATCC 28188 [5]): 0.25 µg/mL (≈ 0.271 µM)
SMILES: C[C@@H]1[C@H](O)[C@@H](C)/C=C/C=C/C=C/C=C/C=C/C=C/C=C/[C@H](O[C@@H]2O[C@H](C)[C@@H](O)[C@H](N)[C@@H]2O)C[C@@H]2O[C@](O)(C[C@@H](O)C[C@@H](O)[C@H](O)CC[C@@H](O)C[C@@H](O)CC(=O)O[C@H]1C)C[C@H](O)[C@H]2C(=O)O [Amphotericin B]
MFC (C. albicans ATCC 10231 [1]): 0.5 µg/mL (≈ 0.541 µM)
fungicidal activity (C. albicans ATCC 10231 [1]): Fungicidal activity
MFC (T. rubrum ATCC 28188 [2]): 0.5 µg/mL (≈ 0.541 µM)
fungicidal activity (T. rubrum ATCC 28188 [2]): Fungicidal activity was observed
MBC (ppm) (T. rubrum; [14]): >0.25 ppm
MFC (C. albicans ATCC 10231 [4]; 99.9% inhibition of growth): 0.12 µg/mL (≈ 0.13 µM)
fungicidal activity (C. albicans ATCC 10231 [4]): Fungal activity
MFC (T. rubrum ATCC 28188 [5]; 99.9% inhibition of growth): 0.5 µg/mL (≈ 0.541 µM)
fungicidal activity (T. rubrum ATCC 28188 [5]): Fungicidal activity was observed
Log10 Reduction ([6]; 30 sec. contact): 1.0 Log10
CFUs recovered per milliliter of T. rubrum culture ([6]; 30 sec. contact, initial 1.0 × 10^6 CFU/ml, Amphotericin B 2.5 mg/L): 1.0 × 10^5 CFU/ml and 1.1 × 10^5 CFU/ml
CFUs recovered per milliliter of T. rubrum culture ([6]; 60 sec. contact): 6.9 × 10^4 CFU/ml and 8.7 × 10^4 CFU/ml
Log10 Reduction ([6]; 60 sec. contact): 1.2 Log10 and 1.1 Log10
Log10 Reduction ([6]; 10 min. contact): 1.0 Log10

MIC (C. albicans ATCC 10231 [1]; 80% reduction in growth): >0.5 µg/mL
MIC (C. albicans ATCC 10231 [1]; [9]): > 0.5 µg/mL
MIC (T. rubrum ATCC 28188 [2]; Trichophyton rubrum, ATCC28188, read-out: MIC (μg/ml), read at 50% inhibition of growth, terbinafine, 50% reading): 0.008 µg/mL (≈ 0.0275 µM)
MIC (T. rubrum ATCC 28188 [2]; Trichophyton rubrum, ATCC28188, read-out: MIC (μg/ml), read at 90% inhibition of growth, terbinafine, 90% reading): 0.032 µg/mL (≈ 0.11 µM)
SMILES: CN(C/C=C/C#CC(C)(C)C)Cc1cccc2ccccc12 [Terbinafine]
MFC (C. albicans ATCC 10231 [1]; [10]): > 0.5 µg/mL
fungicidal activity (C. albicans ATCC 10231 [1]): Fungicidal activity
fungicidal activity (T. rubrum ATCC 28188 [2]): did not demonstrate fungicidal activity
MFC (T. rubrum ATCC 28188 [2]; [11]): 0.125 µg/mL (≈ 0.429 µM)

SMILES: O=C(O)CN(CCN(CC(=O)O)CC(=O)O)CC(=O)O.[Zn] [ZnEDTA, ethylenediaminotetraacetate zinc complex]
MFC (C. albicans ATCC 10231 [1]): 13000 µg/mL
MFC, % (C. albicans ATCC 10231 [1]): 1.3%
MIC, % (C. albicans ATCC 10231 [1]; [15]): 0.08%
MIC (C. albicans ATCC 10231 [1]; 80% reduction in growth): 800 µg/mL
MFC (T. rubrum ATCC 28188 [2]): 6000 µg/mL
MFC, % (T. rubrum ATCC 28188 [2]): 0.6%
MIC, % (T. rubrum ATCC 28188 [2]; [15]): 0.04%
MIC (T. rubrum ATCC 28188 [2]; [13]): 400 µg/mL
fungicidal activity (T. rubrum ATCC 28188 [2]): did not demonstrate fungicidal activity
Death time of test-microorganisms (min) S. aureus (S. aureus (strain 906); Conc. 0.1 %): >30 min
Death time of test-microorganisms (min) S. aureus (S. aureus (strain 906); Conc. 5.0 %): >30 min
MBC (P. aeruginosa ATCC 15442): 80000 µg/mL
MBC, % (P. aeruginosa ATCC 15442; % as g/100 ml or ml/100 ml): 8%
MIC, % (P. aeruginosa ATCC 15442; % as g/100 ml or ml/100 ml): 2%
bactericidal activity (P. aeruginosa ATCC 15442; MBC within one doubling dilution of the MIC): did not meet the definition of bactericidal
MCB (μg/ml) [7]: (>25000) μg/ml
MCB, % ([7]; % as g/100 ml or ml/100 ml): >2.5%
MIC, % ([7]; % as g/100 ml or ml/100 ml): 1.3%
MIC, % (E. coli ATCC 11229): 2%
MBC (μg/ml) (S. aureus ATCC 25923): (>25000) μg/ml
MBC, % (S. aureus ATCC 25923; % as g/100 ml or ml/100 ml): >2.5%
MIC, % (S. aureus ATCC 25923; % as g/100 ml or ml/100 ml): 1.3%
MIC, % (C. albicans ATCC 10231 [4]; [15]): 0.15%
MIC (C. albicans ATCC 10231 [4]; 80% reduction in growth): 1500 µg/mL
MFC (C. albicans ATCC 10231 [4]; 99.9% inhibition of growth): 1500 µg/mL
MFC, % (C. albicans ATCC 10231 [4]; 99.9% inhibition of growth): 0.15%
fungicidal activity (C. albicans ATCC 10231 [4]): Fungal activity
MBC (μg/ml) (S. pyogenes ATCC 19615): (13000) μg/ml
MBC, % (S. pyogenes ATCC 19615; % as g/100 ml or ml/100 ml): 1.3%
MIC, % (S. pyogenes ATCC 19615; % as g/100 ml or ml/100 ml): 1.3%
reduction of S. aureus count [8]: ineffective
MIC, % (T. rubrum ATCC 28188 [5]; [15]): 0.08%
MIC (T. rubrum ATCC 28188 [5]): 800 µg/mL
MFC (T. rubrum ATCC 28188 [5]; 99.9% inhibition of growth): 3000 µg/mL
MFC, % (T. rubrum ATCC 28188 [5]; 99.9% inhibition of growth): 0.3%
fungicidal activity (T. rubrum ATCC 28188 [5]): did not demonstrate fungicidal activity
Death time of test-microorganisms (min) E. coli (E. coli (strain 1257); Conc. 0.1 %): >30 min
Death time of test-microorganisms (min) E. coli (E. coli (strain 1257); Conc. 5.0 %): >30 min
